This is an account of results in ChEMBL document CHEMBL3991601, “The target landscape of clinical kinase drugs” (Science, 2017).

Test [1] concerns the target Maternal embryonic leucine zipper kinase (Homo sapiens, UniProt Q14680).
Test [2] concerns the target Tyrosine-protein kinase HCK (Homo sapiens, UniProt P08631).
Test [3] addresses ATP-dependent RNA helicase DDX3X (Homo sapiens, UniProt O00571).
Test [4] addresses Tyrosine-protein kinase Fer (Homo sapiens, UniProt P16591).
Test [5] deals with U5 small nuclear ribonucleoprotein 200 kDa helicase (Homo sapiens, UniProt O75643).
Chain of U5 small nuclear ribonucleoprotein 200 kDa helicase (O75643 whole entry): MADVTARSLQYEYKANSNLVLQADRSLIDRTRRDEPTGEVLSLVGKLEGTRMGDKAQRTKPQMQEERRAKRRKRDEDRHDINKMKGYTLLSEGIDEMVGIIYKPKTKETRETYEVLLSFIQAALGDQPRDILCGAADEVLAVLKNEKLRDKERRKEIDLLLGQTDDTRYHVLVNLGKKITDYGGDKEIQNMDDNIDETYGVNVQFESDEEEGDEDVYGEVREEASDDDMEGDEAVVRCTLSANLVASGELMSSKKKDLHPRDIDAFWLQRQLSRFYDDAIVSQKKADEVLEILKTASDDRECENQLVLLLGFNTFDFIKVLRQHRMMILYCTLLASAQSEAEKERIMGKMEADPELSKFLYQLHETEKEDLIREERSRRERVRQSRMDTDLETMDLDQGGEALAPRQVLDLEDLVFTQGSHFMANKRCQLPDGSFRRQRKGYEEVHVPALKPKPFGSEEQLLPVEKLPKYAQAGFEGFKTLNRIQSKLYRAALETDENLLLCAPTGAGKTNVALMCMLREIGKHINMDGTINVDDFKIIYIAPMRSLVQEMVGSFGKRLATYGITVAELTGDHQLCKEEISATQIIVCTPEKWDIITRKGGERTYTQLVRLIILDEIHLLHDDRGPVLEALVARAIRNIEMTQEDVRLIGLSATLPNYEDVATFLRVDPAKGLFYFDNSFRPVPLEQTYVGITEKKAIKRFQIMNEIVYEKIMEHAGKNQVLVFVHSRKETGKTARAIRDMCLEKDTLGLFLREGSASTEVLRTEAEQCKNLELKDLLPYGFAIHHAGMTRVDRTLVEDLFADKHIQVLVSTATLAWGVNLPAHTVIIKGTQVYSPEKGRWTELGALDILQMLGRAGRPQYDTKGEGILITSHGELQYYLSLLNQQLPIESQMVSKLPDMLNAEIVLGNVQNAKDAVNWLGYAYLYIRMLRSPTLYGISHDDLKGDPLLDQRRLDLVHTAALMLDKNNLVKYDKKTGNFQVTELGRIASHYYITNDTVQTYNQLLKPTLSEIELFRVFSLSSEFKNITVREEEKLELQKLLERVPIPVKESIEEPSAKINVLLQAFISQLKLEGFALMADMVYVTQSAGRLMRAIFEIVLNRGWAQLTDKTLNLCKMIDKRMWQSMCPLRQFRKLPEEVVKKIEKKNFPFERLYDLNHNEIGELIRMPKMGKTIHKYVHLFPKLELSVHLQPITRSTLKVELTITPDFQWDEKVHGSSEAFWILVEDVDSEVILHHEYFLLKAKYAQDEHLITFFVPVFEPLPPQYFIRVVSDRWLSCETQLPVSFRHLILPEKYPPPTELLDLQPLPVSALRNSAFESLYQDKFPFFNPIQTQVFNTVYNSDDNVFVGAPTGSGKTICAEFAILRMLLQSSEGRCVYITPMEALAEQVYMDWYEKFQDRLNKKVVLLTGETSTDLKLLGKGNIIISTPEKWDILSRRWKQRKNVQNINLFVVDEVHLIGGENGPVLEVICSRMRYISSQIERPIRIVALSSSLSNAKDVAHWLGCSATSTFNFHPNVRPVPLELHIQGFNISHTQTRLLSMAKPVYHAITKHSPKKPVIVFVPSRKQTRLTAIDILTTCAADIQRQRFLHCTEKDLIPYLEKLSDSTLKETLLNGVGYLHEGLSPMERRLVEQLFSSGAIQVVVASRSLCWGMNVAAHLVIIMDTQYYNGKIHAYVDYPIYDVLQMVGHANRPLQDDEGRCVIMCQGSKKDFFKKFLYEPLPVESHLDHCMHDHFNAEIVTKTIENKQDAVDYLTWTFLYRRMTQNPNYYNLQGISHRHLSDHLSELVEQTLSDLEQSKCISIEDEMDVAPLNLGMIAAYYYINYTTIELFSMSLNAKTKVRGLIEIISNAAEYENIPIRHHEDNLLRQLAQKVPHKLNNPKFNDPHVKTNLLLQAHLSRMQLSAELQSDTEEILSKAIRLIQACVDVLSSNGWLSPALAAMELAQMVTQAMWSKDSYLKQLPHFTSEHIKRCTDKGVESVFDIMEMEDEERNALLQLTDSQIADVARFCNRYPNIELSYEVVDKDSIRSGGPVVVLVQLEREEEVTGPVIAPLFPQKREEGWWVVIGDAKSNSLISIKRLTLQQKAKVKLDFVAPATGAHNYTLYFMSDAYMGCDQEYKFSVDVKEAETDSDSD
Test [6] has as its target Serine/threonine-protein kinase pim-1 (Homo sapiens, UniProt P11309).
Test [7] has as its target T1, Phosphatidylinositol 5-phosphate 4-kinase type-2 gamma (Homo sapiens, UniProt Q8TBX8).
T1 sequence (Q8TBX8 whole entry): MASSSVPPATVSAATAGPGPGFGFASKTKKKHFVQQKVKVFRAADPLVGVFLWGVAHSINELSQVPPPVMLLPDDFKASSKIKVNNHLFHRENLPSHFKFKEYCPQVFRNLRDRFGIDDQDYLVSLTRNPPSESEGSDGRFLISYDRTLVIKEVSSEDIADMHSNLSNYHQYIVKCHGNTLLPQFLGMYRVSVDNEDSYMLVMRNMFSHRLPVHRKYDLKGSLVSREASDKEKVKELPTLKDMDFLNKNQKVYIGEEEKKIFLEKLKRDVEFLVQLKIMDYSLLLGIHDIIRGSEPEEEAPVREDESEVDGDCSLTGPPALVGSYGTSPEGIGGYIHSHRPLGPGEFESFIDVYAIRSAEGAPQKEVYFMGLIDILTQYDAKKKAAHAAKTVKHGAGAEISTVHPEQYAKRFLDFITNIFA

Test [8] has as its target Receptor-interacting serine/threonine-protein kinase 3 (Homo sapiens, UniProt Q9Y572).
Test [9] deals with Tyrosine-protein kinase FRK (Homo sapiens, UniProt P42685).
Chain of Tyrosine-protein kinase FRK (P42685 whole entry): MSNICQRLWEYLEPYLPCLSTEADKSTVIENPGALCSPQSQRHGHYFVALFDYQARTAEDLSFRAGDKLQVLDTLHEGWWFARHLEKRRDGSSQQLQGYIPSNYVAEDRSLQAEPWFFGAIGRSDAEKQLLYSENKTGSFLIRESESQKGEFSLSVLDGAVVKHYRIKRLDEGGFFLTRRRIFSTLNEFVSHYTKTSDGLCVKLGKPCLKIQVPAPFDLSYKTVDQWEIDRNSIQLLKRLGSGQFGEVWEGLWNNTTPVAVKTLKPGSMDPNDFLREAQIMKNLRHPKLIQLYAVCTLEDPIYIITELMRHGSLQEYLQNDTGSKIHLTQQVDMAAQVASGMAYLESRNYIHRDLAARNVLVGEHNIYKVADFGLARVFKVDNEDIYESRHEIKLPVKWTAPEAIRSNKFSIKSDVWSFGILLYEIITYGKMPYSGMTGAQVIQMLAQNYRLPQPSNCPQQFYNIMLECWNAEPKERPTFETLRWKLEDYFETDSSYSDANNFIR
In test [10] the target is T2, ATP-dependent 6-phosphofructokinase, platelet type (Homo sapiens, UniProt Q01813).
T2 sequence (Q01813 whole entry): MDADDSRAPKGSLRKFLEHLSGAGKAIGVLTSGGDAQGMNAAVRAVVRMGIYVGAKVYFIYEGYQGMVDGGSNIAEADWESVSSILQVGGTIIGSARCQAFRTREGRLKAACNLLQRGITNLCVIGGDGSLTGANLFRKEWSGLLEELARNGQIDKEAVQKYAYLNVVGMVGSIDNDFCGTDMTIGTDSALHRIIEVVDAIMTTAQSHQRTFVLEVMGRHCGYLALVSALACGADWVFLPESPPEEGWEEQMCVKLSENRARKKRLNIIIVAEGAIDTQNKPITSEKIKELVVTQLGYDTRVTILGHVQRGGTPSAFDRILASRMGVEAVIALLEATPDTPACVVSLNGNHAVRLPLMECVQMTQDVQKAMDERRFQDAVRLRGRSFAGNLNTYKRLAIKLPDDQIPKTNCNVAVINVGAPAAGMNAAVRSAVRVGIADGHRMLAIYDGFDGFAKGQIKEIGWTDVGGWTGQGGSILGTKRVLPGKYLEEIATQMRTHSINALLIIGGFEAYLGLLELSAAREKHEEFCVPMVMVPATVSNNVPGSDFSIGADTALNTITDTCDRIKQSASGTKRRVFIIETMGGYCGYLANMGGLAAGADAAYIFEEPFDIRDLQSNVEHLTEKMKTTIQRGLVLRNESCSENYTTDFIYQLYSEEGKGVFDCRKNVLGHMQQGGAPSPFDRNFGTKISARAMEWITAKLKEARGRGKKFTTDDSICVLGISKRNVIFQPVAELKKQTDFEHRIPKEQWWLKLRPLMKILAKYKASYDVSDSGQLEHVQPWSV

Test [11] addresses T3, Cysteine--tRNA ligase, cytoplasmic (Homo sapiens, UniProt P49589).
T3 sequence (P49589 whole entry): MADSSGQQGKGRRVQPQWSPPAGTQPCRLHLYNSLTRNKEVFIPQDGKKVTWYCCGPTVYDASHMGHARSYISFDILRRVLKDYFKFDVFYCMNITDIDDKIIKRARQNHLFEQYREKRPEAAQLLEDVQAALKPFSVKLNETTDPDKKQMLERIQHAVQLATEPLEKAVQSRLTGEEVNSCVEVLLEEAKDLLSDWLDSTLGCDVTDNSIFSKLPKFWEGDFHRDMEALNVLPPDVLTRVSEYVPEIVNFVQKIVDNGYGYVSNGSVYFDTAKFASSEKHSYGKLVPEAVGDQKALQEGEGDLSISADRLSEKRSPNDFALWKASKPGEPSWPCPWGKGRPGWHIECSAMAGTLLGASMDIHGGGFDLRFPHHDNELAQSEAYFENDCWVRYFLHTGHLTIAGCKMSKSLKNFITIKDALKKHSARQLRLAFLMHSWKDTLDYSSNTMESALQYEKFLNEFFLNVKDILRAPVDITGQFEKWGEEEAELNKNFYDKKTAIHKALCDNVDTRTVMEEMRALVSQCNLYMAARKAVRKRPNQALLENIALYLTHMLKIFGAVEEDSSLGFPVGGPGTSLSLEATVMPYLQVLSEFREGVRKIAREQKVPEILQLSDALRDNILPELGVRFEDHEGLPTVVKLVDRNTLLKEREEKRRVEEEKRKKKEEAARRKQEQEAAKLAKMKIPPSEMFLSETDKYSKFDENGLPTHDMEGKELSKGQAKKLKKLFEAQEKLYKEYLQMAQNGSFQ

The structures appear in SMILES notation. Calls of active or inactive are those of the source. For most assays here, no stated cut-off is given here; in the data, actives have a measured Kd and inactives only a lower limit.

Chain of Serine/threonine-protein kinase pim-1 (P11309 whole entry): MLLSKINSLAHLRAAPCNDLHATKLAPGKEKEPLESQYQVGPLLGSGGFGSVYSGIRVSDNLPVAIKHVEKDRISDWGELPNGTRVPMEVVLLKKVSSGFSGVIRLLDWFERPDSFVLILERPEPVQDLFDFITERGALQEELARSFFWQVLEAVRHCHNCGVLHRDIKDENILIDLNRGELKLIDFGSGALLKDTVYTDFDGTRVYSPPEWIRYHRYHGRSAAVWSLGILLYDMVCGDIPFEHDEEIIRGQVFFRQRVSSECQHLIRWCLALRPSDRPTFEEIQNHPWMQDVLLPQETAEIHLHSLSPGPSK
Chain of Tyrosine-protein kinase HCK (P08631 whole entry): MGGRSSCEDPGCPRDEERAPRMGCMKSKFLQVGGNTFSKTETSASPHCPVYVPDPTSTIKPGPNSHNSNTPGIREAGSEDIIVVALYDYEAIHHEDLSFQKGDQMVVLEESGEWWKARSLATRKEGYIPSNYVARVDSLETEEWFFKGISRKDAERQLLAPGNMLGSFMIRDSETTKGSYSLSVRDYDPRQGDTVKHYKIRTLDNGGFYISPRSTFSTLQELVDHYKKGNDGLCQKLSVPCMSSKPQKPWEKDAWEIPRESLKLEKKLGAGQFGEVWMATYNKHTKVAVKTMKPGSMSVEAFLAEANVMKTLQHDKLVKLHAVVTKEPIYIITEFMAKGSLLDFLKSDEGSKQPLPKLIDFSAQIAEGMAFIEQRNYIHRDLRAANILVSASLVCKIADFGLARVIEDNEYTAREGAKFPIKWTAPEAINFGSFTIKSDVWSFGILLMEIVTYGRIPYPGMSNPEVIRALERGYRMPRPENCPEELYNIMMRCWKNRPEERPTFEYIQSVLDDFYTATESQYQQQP
Chain of Tyrosine-protein kinase Fer (P16591 whole entry): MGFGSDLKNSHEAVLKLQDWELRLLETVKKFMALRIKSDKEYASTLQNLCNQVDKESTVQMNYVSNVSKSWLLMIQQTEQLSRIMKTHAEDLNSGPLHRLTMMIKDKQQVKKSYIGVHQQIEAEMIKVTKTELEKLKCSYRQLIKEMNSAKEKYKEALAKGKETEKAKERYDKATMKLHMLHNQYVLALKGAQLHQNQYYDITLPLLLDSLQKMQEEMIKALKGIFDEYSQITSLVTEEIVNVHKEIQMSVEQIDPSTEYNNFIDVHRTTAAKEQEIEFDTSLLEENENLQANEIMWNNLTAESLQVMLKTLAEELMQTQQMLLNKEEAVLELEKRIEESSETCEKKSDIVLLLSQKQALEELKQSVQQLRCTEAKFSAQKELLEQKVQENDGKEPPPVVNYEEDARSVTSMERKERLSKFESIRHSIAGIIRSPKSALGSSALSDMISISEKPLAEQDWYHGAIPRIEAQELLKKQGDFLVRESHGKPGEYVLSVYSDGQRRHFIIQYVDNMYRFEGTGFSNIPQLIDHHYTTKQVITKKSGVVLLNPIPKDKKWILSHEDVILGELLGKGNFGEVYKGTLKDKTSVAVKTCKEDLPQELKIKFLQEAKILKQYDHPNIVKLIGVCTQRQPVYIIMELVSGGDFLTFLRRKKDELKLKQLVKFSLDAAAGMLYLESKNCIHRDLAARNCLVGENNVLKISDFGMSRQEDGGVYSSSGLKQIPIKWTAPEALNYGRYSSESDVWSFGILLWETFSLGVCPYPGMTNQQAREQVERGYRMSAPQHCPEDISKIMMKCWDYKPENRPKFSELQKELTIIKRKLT
Chain of ATP-dependent RNA helicase DDX3X (O00571 whole entry): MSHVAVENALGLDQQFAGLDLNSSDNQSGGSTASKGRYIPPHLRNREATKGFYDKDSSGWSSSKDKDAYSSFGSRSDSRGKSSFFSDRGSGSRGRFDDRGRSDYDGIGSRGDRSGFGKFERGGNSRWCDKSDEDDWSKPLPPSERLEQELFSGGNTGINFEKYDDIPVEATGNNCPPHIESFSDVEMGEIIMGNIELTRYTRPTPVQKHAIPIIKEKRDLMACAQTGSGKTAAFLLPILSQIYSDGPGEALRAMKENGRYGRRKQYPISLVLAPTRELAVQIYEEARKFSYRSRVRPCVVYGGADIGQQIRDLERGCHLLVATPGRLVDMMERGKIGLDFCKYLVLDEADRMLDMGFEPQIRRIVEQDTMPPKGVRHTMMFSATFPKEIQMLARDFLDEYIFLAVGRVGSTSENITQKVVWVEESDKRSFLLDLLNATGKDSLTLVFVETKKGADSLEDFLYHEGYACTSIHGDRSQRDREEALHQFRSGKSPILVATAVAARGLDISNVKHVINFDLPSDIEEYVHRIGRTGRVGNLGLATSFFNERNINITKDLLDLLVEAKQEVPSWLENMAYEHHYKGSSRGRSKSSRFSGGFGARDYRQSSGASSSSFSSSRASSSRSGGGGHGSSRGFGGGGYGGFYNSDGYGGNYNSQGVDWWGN

As usually defined, the Kd is the constant that tells how readily two partners part at equilibrium. Turning to `C=CCN(/C=C1/C(=O)O[C@H](COC)[C@@]2(C)C1=C(O)C(=O)C1=C2[C@H](OC(C)=O)C[C@]2(C)C(=O)CC[C@@H]12)CC=C` [SONOLISIB], the Kd in test [1], in test [2], in test [3], in test [4], in test [5] and in [6] was > 30 µM (inactive) in each case. The Kd in test [7], in test [8] and in [9] was > 30 µM (inactive) throughout.
Turning to `O=c1[nH]c([C@@H]2CCCN2)nc2c1oc1ccc(Cl)cc12`, the Kd in [1], in test [2], in [3], in [4], in test [5] and in [10] was > 30 µM (inactive) in each case. For the same compound, the Kd is 0.022 µM (active) in test [6], > 30 µM (inactive) in test [7], > 30 µM (inactive) in test [8] and > 30 µM (inactive) in test [9].
As to `Cc1cc(C(=O)Nc2cc(Oc3ccc4nc(NC(=O)C5CC5)cn4n3)ccc2C)n(C)n1` [TAK-593], the Kd in [1], in test [2], in [3], in [4], in test [5] and in [10] was > 30 µM (inactive) each time. The Kd in test [6], in [7], in test [8] and in [9] was > 30 µM (inactive) each time.
On to `Cn1c(=O)c(F)c(Nc2ccc(I)cc2F)c2c(=O)n(C[C@@H](O)CO)cnc21` [TAK-733], for which the Kd in test [1], in test [2], in [3], in test [4], in test [5] and in test [6] was > 30 µM (inactive) throughout. Also, the Kd in [7], in test [8] and in test [9] was > 30 µM (inactive) throughout.
For `CC[C@@](C)(Nc1ccnc(-c2c[nH]c3ncccc23)n1)C(=O)NCC(F)(F)F` [DECERNOTINIB], the Kd in test [1], in test [2], in test [3], in test [4], in test [5] and in test [10] was > 30 µM (inactive) each time. Moreover, the Kd in test [6], in test [7], in test [8] and in test [9] was > 30 µM (inactive) throughout.
With `CC(C)CC(=O)Nc1[nH]nc2c1CN(C(=O)C1CCN(C)CC1)C2(C)C` [PHA-793887], the Kd in test [2], in test [3], in [5], in [10], in test [6] and in test [7] was > 30 µM (inactive) each time. The Kd in test [8], in [9] and in test [11] was > 30 µM (inactive) in each case.
Regarding `CNC(=O)c1cc(COc2nnc(Nc3ccc(Cl)cc3)c3ccoc23)ccn1` [TELATINIB], the Kd in test [1], in [2], in test [3], in [4], in test [5] and in test [10] was > 30 µM (inactive) each time. The Kd in test [6], in test [7], in test [8] and in test [9] was > 30 µM (inactive) throughout.
In the case of `COc1cccc(Nc2ncnn3ccc(CN4CC[C@@H](N)[C@H](O)C4)c23)c1` [BMS-690514], the Kd was > 30 µM (inactive) in [1]; 0.712 µM (active) in [2]; > 30 µM (inactive) in test [3]; > 30 µM (inactive) in [4]; > 30 µM (inactive) in [5]; > 30 µM (inactive) in test [10]. Also, the Kd in test [6] was > 30 µM (inactive); in [7] it was > 30 µM (inactive); in test [8], > 30 µM (inactive); in [9], 0.795 µM (active).
Take `C=CC(=O)Nc1cccc(Nc2nc(Nc3ccc(N4CCN(C(C)=O)CC4)cc3OC)ncc2C(F)(F)F)c1` [ROCILETINIB]: the Kd in test [1] was > 30 µM (inactive); in test [2], > 30 µM (inactive); in [3] it was > 30 µM (inactive); in test [4] it was 1.11 µM (active); in test [5], > 30 µM (inactive); in [10], > 30 µM (inactive). Moreover, the Kd in [6], in test [7], in [8] and in [9] was > 30 µM (inactive) each time.
With `N#CCNC(=O)c1ccc(-c2ccnc(Nc3ccc(N4CCOCC4)cc3)n2)cc1` [MOMELOTINIB], the Kd in test [3], in test [4], in test [5], in [10], in [6] and in test [7] was > 30 µM (inactive) throughout. The Kd in test [8], in test [9] and in test [11] was > 30 µM (inactive) each time.
Regarding `Cc1c(NC(=O)OC[C@@H]2COCCN2)cn2ncnc(Nc3ccc4c(cnn4Cc4cccc(F)c4)c3)c12` [AC-480], the Kd in test [1], in test [2], in test [3], in [4], in test [5] and in test [10] was > 30 µM (inactive) each time. Further, the Kd in test [6], in test [7], in [8] and in test [9] was > 30 µM (inactive) each time.
`O[C@H]1CC[C@H](Nc2ncc3nc(Nc4c(F)cc(F)cc4F)n([C@H]4CCOC4)c3n2)CC1` [TANZISERTIB]: the Kd in test [1], in test [2], in test [3], in test [4], in test [5] and in test [10] was > 30 µM (inactive) each time. For the same compound, the Kd in [6], in [7], in test [8] and in [9] was > 30 µM (inactive) each time.
